This data set has as its system CCRIS mutagenicity, Ames/micronucleus/aberration tests. As to the kind of experiment: CCRIS mutagenicity studies. The conditions noted are these: Test System: AMES SALMONELLA TYPHIMURIUM
[1] abbreviates: Strain/Indicator: TA98, Metabolic Activation: NONE, Method: STANDARD PLATE.
The mark [2] stands for this setting: Strain/Indicator: TA98, Metabolic Activation: RAT, LIVER, S-9, AROCLOR 1254, Method: STANDARD PLATE.
The mark [3] stands for this setting: Strain/Indicator: TA100, Metabolic Activation: NONE, Method: STANDARD PLATE.
The mark [4] stands for this setting: Strain/Indicator: TA100, Metabolic Activation: RAT, LIVER, S-9, AROCLOR 1254, Method: STANDARD PLATE.
Setting [5] is: Strain/Indicator: TA1535, Metabolic Activation: NONE, Method: STANDARD PLATE.
The mark [6] stands for this setting: Strain/Indicator: TA1535, Metabolic Activation: RAT, LIVER, S-9, AROCLOR 1254, Method: STANDARD PLATE.
[7] abbreviates: Strain/Indicator: TA1537, Metabolic Activation: NONE, Method: STANDARD PLATE.
Where [8] appears, read: Strain/Indicator: TA1537, Metabolic Activation: RAT, LIVER, S-9, AROCLOR 1254, Method: STANDARD PLATE.
Setting [9] is: Strain/Indicator: TA98, Metabolic Activation: NONE, Method: PREINCUBATION
[10] abbreviates: Strain/Indicator: TA100, Metabolic Activation: NONE, Method: PREINCUBATION
Where [11] appears, read: Strain/Indicator: TA100, Metabolic Activation: RAT, LIVER, S-9, PCB, Method: PREINCUBATION

The source made the active and inactive calls. How the calls were made is not given here.

With `O=c1c(Cl)c(Cl)cnn1S(=O)(=O)c1ccc(Cl)cc1Cl`, the mutagenic call reads like this: under setting [1], “inactive; negative”; under setting [2], “inactive; negative”; under setting [3], “inactive; negative”; under setting [4], “inactive; negative”; under setting [5], “inactive; negative”; under setting [6], “inactive; negative”. In addition, the mutagenic call under setting [7] is “inactive; negative” and the mutagenic call under setting [8] is “inactive; negative”.
Take `O=C1OCC(C(Cl)Cl)=C1Cl`: the mutagenic call was “inactive; negative” under setting [1]; “inactive; negative” under setting [2]; “active; positive” (Strain/Indicator: TA102, Metabolic Activation: NONE, Method: STANDARD PLATE); “inactive; negative” (Strain/Indicator: TA102, Metabolic Activation: RAT, LIVER, S-9, AROCLOR 1254, Method: STANDARD PLATE).
Turning to `O=[N+]([O-])c1ccc2c(c1)Oc1ccc([N+](=O)[O-])cc1O2`, the mutagenic call is, setting by setting: (Strain/Indicator: TA98(1,8-DNP6), Metabolic Activation: NONE, Method: PREINCUBATION) “active; positive”; (Strain/Indicator: TA98(1,8-DNP6), Metabolic Activation: NONE, Method: SUSPENSION) “active; positive”; (Strain/Indicator: TA98(1,8-DNP6), Metabolic Activation: RAT, LIVER, S-9, PCB (5%), Method: PREINCUBATION) “active; positive”; (Strain/Indicator: TA98(NR), Metabolic Activation: NONE, Method: PREINCUBATION) “inactive; negative”; (Strain/Indicator: TA98(NR), Metabolic Activation: NONE, Method: SUSPENSION) “active; positive”; (Strain/Indicator: TA98(NR), Metabolic Activation: RAT, LIVER, S-9 (15%), Method: PREINCUBATION) “active; positive”. Besides, the mutagenic call was “active; positive” (Strain/Indicator: TA98(NR), Metabolic Activation: RAT, LIVER, S-9, 3-METHYLCHOLANTHRENE (15%), Method: PREINCUBATION); “active; positive” (Strain/Indicator: TA98(NR), Metabolic Activation: RAT, LIVER, S-9, BETA-NAPHTHOFLAVONE (15%), Method: PREINCUBATION); “active; positive” (Strain/Indicator: TA98(NR), Metabolic Activation: RAT, LIVER, S-9, PCB (5 OR 15%), Method: PREINCUBATION); “active; positive” (Strain/Indicator: TA98(NR), Metabolic Activation: RAT, LIVER, S-9, PHENOBARBITAL (15%), Method: PREINCUBATION); “active; positive” under setting [9]; “active; positive” (Strain/Indicator: TA98, Metabolic Activation: NONE, Method: SUSPENSION). Further, the mutagenic call (Strain/Indicator: TA98, Metabolic Activation: RAT, LIVER, S-9, PCB (5%), Method: PREINCUBATION) was “active; positive”; the mutagenic call (Strain/Indicator: TA98, Metabolic Activation: RAT, LIVER, S-9, PCB, Method: SUSPENSION) is “active; positive”; the mutagenic call under setting [10] is “inactive; negative”; the mutagenic call (Strain/Indicator: TA100, Metabolic Activation: NONE, Method: SUSPENSION) is “inactive; negative”; the mutagenic call under setting [11] was “inactive; negative”; the mutagenic call (Strain/Indicator: TA100, Metabolic Activation: RAT, LIVER, S-9, PCB, Method: SUSPENSION) is “inactive; negative”.
`CC(C)N(C(=O)SCC(Cl)=C(Cl)Cl)C(C)C`: the mutagenic call was “inactive; negative” under setting [1]; “active; positive” under setting [2]; “inactive; negative” under setting [3]; “active; positive” under setting [4]; “inactive; negative” under setting [5]; “active; positive” under setting [6]. Moreover, the mutagenic call was “inactive; negative” under setting [7]; “inactive; negative” under setting [8]; “inactive; negative” (Strain/Indicator: TA1538, Metabolic Activation: NONE, Method: STANDARD PLATE); “inactive; negative” (Strain/Indicator: TA1538, Metabolic Activation: RAT, LIVER, S-9, AROCLOR 1254, Method: STANDARD PLATE).
`Nc1ccc(-c2ccc(Cl)cc2)cc1`: the mutagenic call is, setting by setting: under setting [1], “inactive; negative”; under setting [2], “active; positive”; under setting [3], “inactive; negative”; under setting [4], “active; positive”.
Consider `O=C(O)CCC(=O)Nc1cc(Cl)cc(Cl)c1`, for which the mutagenic call was “inactive; negative” under setting [1], “inactive; negative” under setting [2], “inactive; negative” under setting [3] and “inactive; negative” under setting [4].
On to `N#Cc1ccc(CCl)cc1`, for which the mutagenic call under setting [3] was “inactive; negative”.
For `NNc1nncc2cccnc12`, the mutagenic call under setting [9] was “active; positive”; the mutagenic call (Strain/Indicator: TA98, Metabolic Activation: RAT, LIVER, S-9, PCB, Method: PREINCUBATION) is “active; positive”; the mutagenic call under setting [10] was “active; positive”; the mutagenic call under setting [11] is “active; positive”.
`C[n+]1ccccc1-c1cccc[n+]1C`: the mutagenic call is “active; positive” (Strain/Indicator: TA97, Metabolic Activation: RAT, LIVER, S-9, PHENOBARBITAL, Method: STANDARD PLATE); “active; positive” (Strain/Indicator: TA98, Metabolic Activation: RAT, LIVER, S-9, PHENOBARBITAL, Method: STANDARD PLATE); “active; positive” (Strain/Indicator: TA100, Metabolic Activation: RAT, LIVER, S-9, PHENOBARBITAL, Method: STANDARD PLATE); “inactive; negative” (Strain/Indicator: TA1535, Metabolic Activation: RAT, LIVER, S-9, PHENOBARBITAL, Method: STANDARD PLATE); “inactive; negative” (Strain/Indicator: TA1537, Metabolic Activation: RAT, LIVER, S-9, PHENOBARBITAL, Method: STANDARD PLATE); “inactive; negative” (Strain/Indicator: TA1538, Metabolic Activation: RAT, LIVER, S-9, PHENOBARBITAL, Method: STANDARD PLATE).
Consider `Cc1ccc(N=Nc2c(O)c(C(=O)O)cc3ccccc23)cc1S(=O)(=O)O`, for which the mutagenic call is, setting by setting: under setting [1], “inactive; negative”; (Strain/Indicator: TA98, Metabolic Activation: RAT, LIVER, S-9, Method: STANDARD PLATE) “inactive; negative”; under setting [3], “inactive; negative”; (Strain/Indicator: TA100, Metabolic Activation: RAT, LIVER, S-9, Method: STANDARD PLATE) “inactive; negative”.

For the origin of these results see PubChem BioAssay AID1259407 (Chemical Carcinogenesis Research Information System (CCRIS), 2018).
